{"source": "patent US20080167477A1", "about": "“NOVEL POLYMORPHIC FORMS OF […] AND PROCESS FOR PREPARING THE SAME” (MATRIX LABORATORIES LIMITED, priority 2007, published 2008)", "origin": "cited, not measured here", "conditions": "compared to the free base of carvedilol; disclosed in WO 2004/002419"}
{"compound": "COc1ccccc1OCCNCC(O)COc1cccc2[nH]c3ccccc3c12.O=P(O)(O)O", "note": "(stereo not shown) [carvedilol dihydrogen phosphate]", "values": [{"measurement": "solubility", "result": "higher solubility when compared to the free base of carvedilol"}]}
